Like-named read-outs stand apart in the source and are kept apart here.

The text below walks through data of US20230278972A1, “SUBSTITUTED HALOALKYL SULFONANILIDE HERBICIDES” (FMC Corporation, priority 2020, published 2023).

Assay type in all cases: in vivo
One assay relates to kochia (Bassia scoparia). Description: Test A preemergence, kochia. The following applies: Bassia scoparia, pre-emergence, 240 h, Preemergence; for pest or weed control at 125 g/ha: 125 g ai/ha, visual injury, approx. 10 days; for pest or weed control at 500 g/ha: 500 g ai/ha. A digest of the protocol: (§1)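 Directed soil spray at planting gave the preemergence treatment, while foliar application to one- to two-leaf seedlings (2–10 cm) gave the postemergence one; pots held a loam and sand mixture and chemicals were carried in a non-phytotoxic solvent with surfactant.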

For assay [1], the system named is pigweed (Amaranthus retroflexus). Description: Test A postemergence, pigweed. The following applies: Amaranthus retroflexus, post-emergence, 240 h, Postemergence, 0 to 100 scale (0 no effect, 100 complete control); for pest or weed control at 125 g/ha: 125 g ai/ha; for pest or weed control at 500 g/ha: 500 g ai/ha. The method, boiled down:
as §1

For assay [2], the system named is barnyardgrass (Echinochloa crus-galli). As to the kind of experiment: Test A preemergence, barnyardgrass. The following applies: Echinochloa crus-galli, pre-emergence, 240 h, Preemergence; for pest or weed control at 125 g/ha: 125 g ai/ha, visual injury, approx. 10 days; for pest or weed control at 500 g/ha: 500 g ai/ha. A digest of the protocol: as §1
For assay [3], the system named is Foxtail, Giant (giant foxtail, Setaria faberi). As to the kind of experiment: Test A preemergence, Foxtail, Giant. The following applies: Setaria faberi, pre-emergence, 240 h, Preemergence; for pest or weed control at 125 g/ha: 125 g ai/ha, visual injury, approx. 10 days; for pest or weed control at 500 g/ha: 500 g ai/ha. The method, boiled down:
as §1

Where [4] appears, read: 0 to 100 scale (0 no effect, 100 complete control), read-out: Plant response rating, Kochia.
[5] abbreviates: read-out: Plant response rating, Pigweed.
[6] abbreviates: visual injury vs untreated controls after approx. 10 days, read-out: Pigweed plant response rating.
Where [7] appears, read: 0 to 100 scale (0 no effect, 100 complete control), read-out: Plant response rating, Barnyardgrass.
[8] abbreviates: 0 to 100 scale (0 no effect, 100 complete control), read-out: Plant response rating, Foxtail, Giant.
[9] abbreviates: visual injury on 0 to 100 scale (0 no effect, 100 complete control), approximately 10 days, read-out: Kochia plant response rating.
Where [10] appears, read: visual injury on 0 to 100 scale (0 no effect, 100 complete control), approximately 10 days, read-out: Foxtail, Giant plant response rating.

For the compound `Cc1cc(C)c(C2=NOC3(CCCC3)C2)cc1NS(=O)(=O)C(F)(F)F` [Compound 207, N-[2,4-Dimethyl-5-(1-oxa-2-azaspiro[4.4]non-2-en-3-yl)phenyl]-1,1,1-trifluoromethanesulfonamide], the pest or weed control at 125 g/ha in the assay on kochia (Bassia scoparia) (setting [4]) turned out to be 90%; in assay [1] (setting [5]) it was 50%; in assay [2] (setting [7]) it was 90%; in assay [3] (setting [8]), 90%. For the same compound, the pest or weed control at 500 g/ha was 90% in the assay with kochia (Bassia scoparia) (setting [4]), 70% in assay [1] (setting [6]), 90% in assay [2] (setting [7]) and 100% in assay [3] (setting [8]).

For the compound `Cc1cc(Cl)c(NS(=O)(=O)C(F)(F)F)cc1C(=O)N1CCC(F)(F)CC1` [Compound 229, N-[2-Chloro-5-[(4,4-difluoro-1-piperidinyl)carbonyl]-4-methylphenyl]-1,1,1-trifluoromethanesulfonamide], the pest or weed control at 125 g/ha turned out to be 80% with kochia (Bassia scoparia) (setting [4]), 80% in assay [1] (setting [5]), 70% in assay [2] (setting [7]) and 60% in assay [3] (setting [8]). In addition, the pest or weed control at 500 g/ha was 100% in the assay on kochia (Bassia scoparia) (setting [9]), 100% in assay [1] (setting [6]), 90% in assay [2] (setting [7]) and 100% in assay [3] (setting [10]).

As to `Cc1cc(C)c(C(=O)N2CCC(F)(F)CC2)cc1NS(=O)(=O)C(F)(F)F` [Compound 241, N-[5-[(4,4-Difluoro-1-piperidinyl)carbonyl]-2,4-dimethylphenyl]-1,1,1-trifluoromethanesulfonamide], the pest or weed control at 125 g/ha with kochia (Bassia scoparia) (setting [4]) stood at 70%; in assay [1] (setting [5]), 60%; in assay [2] (setting [7]), 100%; in assay [3] (setting [8]), 80%. In addition, the pest or weed control at 500 g/ha in the assay with kochia (Bassia scoparia) (setting [9]) worked out at 100%; in assay [1] (visual injury approx. 10 days, read-out: Plant response rating, Pigweed), 80%; in assay [2] (visual injury on 0 to 100 scale (0 no effect, 100 complete control), approximately 10 days, read-out: Barnyardgrass plant response rating), 100%; in assay [3] (setting [10]), 100%.
